Laboratory results from US10543212B2, “Substituted amines for treating cardiac diseases” (Cardurion Pharmaceuticals, LLC, priority 2017, dated 2020).

Molecular target: T1, Full-length, GST-tagged, human CaMKIIδ (Homo sapiens, UniProt Q13557)
T1 construct: Full-Length, Glutathione-S-Transferase(GST)-Tagged, Human CaMKIIδ was purchased from Carna Biosciences; purchased Carna Biosciences 02-111
Test: CaMKIIδ binding assay (TR-FRET with BODIPY-labeled probe ligand)
Procedure, shortened: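 Compounds were tested as 4-fold, eight-point series for 1 hr at room temperature, and IC50 was obtained by logistic fitting against a 3 μM parent-compound control. Signal came from displacement of a 300 nM BODIPY ligand from 0.5 nM GST-CaMKIIδ, detected via Tb-anti-GST in calmodulin/Ca2+ (pH 7.6).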

[1] = Table 2, activity class for CaMKIIδ
[2] = Table 2, CaMKIIδ binding assay, activity given as class A/B/C
[3] = CaMKIIδ binding assay, results of Table 2
[4] = CaMKIIδ binding assay, activity class per Table 2

T1 sequence (Q13557 1-478 isoform Q13557-12): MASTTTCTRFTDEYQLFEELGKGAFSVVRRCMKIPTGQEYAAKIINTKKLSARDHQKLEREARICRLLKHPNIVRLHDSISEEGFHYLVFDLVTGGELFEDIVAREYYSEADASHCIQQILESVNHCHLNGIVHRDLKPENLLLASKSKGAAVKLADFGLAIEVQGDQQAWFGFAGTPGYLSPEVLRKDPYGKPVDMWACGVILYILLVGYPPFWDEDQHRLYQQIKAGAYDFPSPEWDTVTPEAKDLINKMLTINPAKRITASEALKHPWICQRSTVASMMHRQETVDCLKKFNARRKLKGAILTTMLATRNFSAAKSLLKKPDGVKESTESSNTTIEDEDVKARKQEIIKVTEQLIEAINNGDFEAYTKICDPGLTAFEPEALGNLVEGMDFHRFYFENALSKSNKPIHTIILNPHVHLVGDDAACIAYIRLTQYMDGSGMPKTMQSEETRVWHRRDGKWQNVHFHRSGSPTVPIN

`C[C@@H](Cn1cnnn1)Oc1cc(-c2cnc(Nc3cn(CC4CCCN4)nc3C(F)(F)F)nc2)ccc1Cl` (stereo partly drawn) [Example 602, 5-(3-(((S)-1-(1H-tetrazol-1-yl)propan-2-yl)oxy)-4-chlorophenyl)-N-(1-(pyrrolidin-2-ylmethyl)-3-(trifluoromethyl)-1H-pyrazol-4-yl)pyrimidin-2-amine] was tested. Which IC50 [1] did it give?
The IC50 was under 10 nM.

Which IC50 [2] does the source give for `C[C@@H](Cn1cnnn1)Oc1cc(-c2cnc(Nc3cn(C4CC4)nc3OCC(F)(F)F)nc2)ccc1Cl` [Example 774, (S)-5-(3-((1-(1H-tetrazol-1-yl)propan-2-yl)oxy)-4-chlorophenyl)-N-(1-cyclopropyl-3-(2,2,2-trifluoroethoxy)-1H-pyrazol-4-yl)pyrimidin-2-amine] here?
Its IC50 is under 10 nM.

With `COc1cc(C2=CCN(C3COC3)CC2)c(C)cc1Nc1ncc(-c2ccc(C#N)c(O[C@@H](C)Cn3cnnn3)c2)cn1` [Example 530, (S)-2-((1-(1H-tetrazol-1-yl)propan-2-yl)oxy)-4-(2-((2-methoxy-5-methyl-4-(1-(oxetan-3-yl)-1,2,3,6-tetrahydropyridin-4-yl)phenyl)amino)pyrimidin-5-yl)benzonitrile] as the compound, how does the IC50 [3] read?
Its IC50 is under 10 nM.

`C[C@@H](Cn1cnnn1)Oc1cc(-c2cnc(Nc3cc(-c4cccs4)nn3C)nc2)ccc1Cl` [Example 729, (S)-5-(3-((1-(1H-tetrazol-1-yl)propan-2-yl)oxy)-4-chlorophenyl)-N-(1-methyl-3-(thiophen-2-yl)-1H-pyrazol-5-yl)pyrimidin-2-amine] was tested. Which IC50 [1] did it give?
The IC50 was 10 to 100 nM.

How did the IC50 [4] turn out when `C[C@@H](Cn1cnnn1)Oc1cc(-c2cnc(Nc3cn(C(C)(C)C(=O)N4CCOCC4)nc3OCC(F)(F)F)nc2)ccc1Cl` [Example 895, (S)-2-(4-((5-(3-((1-(1H-tetrazol-1-yl)propan-2-yl)oxy)-4-chlorophenyl)pyrimidin-2-yl)amino)-3-(2,2,2-trifluoroethoxy)-1H-pyrazol-1-yl)-2-methyl-1-morpholinopropan-1-one] was run?
Its IC50 is 10 to 100 nM.

Which IC50 [3] does the source give for `C[C@@H](Cn1cnnn1)Oc1cc(-c2cnc(Nc3cn(C4CCN(CC(F)F)CC4)nc3C(F)(F)F)nc2)ccc1Cl` [Example 485, (S)-5-(3-((1-(1H-tetrazol-1-yl)propan-2-yl)oxy)-4-chlorophenyl)-N-(1-(1-(2,2-difluoroethyl)piperidin-4-yl)-3-(trifluoromethyl)-1H-pyrazol-4-yl)pyrimidin-2-amine] here?
Its IC50 is 10 to 100 nM.

For `C[C@@H](Cn1cnnn1)Oc1cc(-c2cnc(Nc3cn(CC4(O)CCC4)nc3C(F)(F)F)nc2)ccc1F` [Example 858, (S)-1-((4-((5-(3-((1-(1H-tetrazol-1-yl)propan-2-yl)oxy)-4-fluorophenyl)pyrimidin-2-yl)amino)-3-(trifluoromethyl)-1H-pyrazol-1-yl)methyl)cyclobutan-1-ol], which IC50 [2] is on record?
Its IC50 is 10 to 100 nM.

Which IC50 [3] does the source give for `COc1ccc(C(=O)N2CCCN(C3COC3)CC2)cc1Nc1ncc(-c2ccc(Cl)c(O[C@@H](C)Cn3cnnn3)c2)cn1` [Example 573, (S)-(3-((5-(3-((1-(1H-tetrazol-1-yl)propan-2-yl)oxy)-4-chlorophenyl)pyrimidin-2-yl)amino)-4-methoxyphenyl) (4-(oxetan-3-yl)-1,4-diazepan-1-yl)methanone] here?
Its IC50 is under 10 nM.

How did the IC50 [3] turn out when `C[C@@H](Cn1cnnn1)Oc1cc(-c2cnc(Nc3cn(C4CCN(C5CCC(F)(F)CC5)CC4)nc3C(F)(F)F)nc2)ccc1Cl` [Example 555, (S)-5-(3-((1-(1H-tetrazol-1-yl)propan-2-yl)oxy)-4-chlorophenyl)-N-(1-(1-(4,4-difluorocyclohexyl)piperidin-4-yl)-3-(trifluoromethyl)-1H-pyrazol-4-yl)pyrimidin-2-amine] was run?
Its IC50 is under 10 nM.

`C[C@@H](COC(F)F)Oc1cc(-c2cnc(Nc3cn(C4CC5(C4)CN(C4CCOCC4)C5)nc3OCC(F)(F)F)nc2)ccc1C#N` [Example 881, (S)-2-((1-(difluoromethoxy)propan-2-yl)oxy)-4-(2-((1-(2-(tetrahydro-2H-pyran-4-yl)-2-azaspiro[3.3]heptan-6-yl)-3-(2,2,2-trifluoroethoxy)-1H-pyrazol-4-yl)amino)pyrimidin-5-yl)benzonitrile] was tested. Which IC50 [4] did it give?
Its IC50 is under 10 nM.

With `C[C@@H](Cn1cnnn1)Oc1cc(-c2cnc(Nc3ccn(C(C)(C)C)n3)nc2)ccc1Cl` [Example 715, (S)-5-(3-((1-(1H-tetrazol-1-yl)propan-2-yl)oxy)-4-chlorophenyl)-N-(1-(tert-butyl)-1H-pyrazol-3-yl)pyrimidin-2-amine] as the compound, how does the IC50 [1] read?
The IC50 was at least 100 nM.

Which IC50 [1] does the source give for `COc1nc(N2CCCN(C(=O)OC(C)(C)C)CC2)ccc1Nc1ncc(-c2ccc(Cl)c(O[C@@H](C)Cn3cnnn3)c2)cn1` [Example 665, tert-butyl (S)-4-(5-((5-(3-((1-(1H-tetrazol-1-yl)propan-2-yl)oxy)-4-chlorophenyl)pyrimidin-2-yl)amino)-6-methoxypyridin-2-yl)-1,4-diazepane-1-carboxylate] here?
Its IC50 is at least 100 nM.

How did the IC50 [3] turn out when `COc1ccc(N2CCN(C3CCOCC3)CC2)cc1Nc1ncc(-c2ccc(Cl)c(O[C@@H](C)Cn3cnnn3)c2)cn1` [Example 582, (S)-5-(3-((1-(1H-tetrazol-1-yl)propan-2-yl)oxy)-4-chlorophenyl)-N-(2-methoxy-5-(4-(tetrahydro-2H-pyran-4-yl)piperazin-1-yl)phenyl)pyrimidin-2-amine] was run?
The IC50 was under 10 nM.

For `C[C@@H](Cn1cc(F)cn1)Oc1cc(-c2cnc(Nc3cn(C4CCN(C5CCOCC5)CC4)nc3OCC(F)(F)F)nc2)ccc1C#N` [Example 819, (S)-2-((1-(4-fluoro-1H-pyrazol-1-yl)propan-2-yl)oxy)-4-(2-((1-(1-(tetrahydro-2H-pyran-4-yl)piperidin-4-yl)-3-(2,2,2-trifluoroethoxy)-1H-pyrazol-4-yl)amino)pyrimidin-5-yl)benzonitrile], which IC50 [2] is on record?
The IC50 was 10 to 100 nM.

With `C[C@@H](Cn1cnnn1)Oc1cc(-c2cnc(Nc3cn(C4CCC(CC(N)=O)CC4)nc3C(F)(F)F)nc2)ccc1Cl` (stereo partly drawn) [Example 852, (S)-2-(4-(4-((5-(3-((1-(1H-tetrazol-1-yl)propan-2-yl)oxy)-4-chlorophenyl)pyrimidin-2-yl)amino)-3-(trifluoromethyl)-1H-pyrazol-1-yl)cyclohexyl)acetamide] as the compound, how does the IC50 [2] read?
The IC50 was at least 100 nM.

With `CC(C)c1nn(C2CC3(C2)CN(C2COC2)C3)cc1Nc1ncc(-c2ccc(Cl)c(O[C@@H](C)Cn3cnnn3)c2)cn1` [Example 935, (S)-5-(3-((1-(1H-tetrazol-1-yl)propan-2-yl)oxy)-4-chlorophenyl)-N-(3-isopropyl-1-(2-(oxetan-3-yl)-2-azaspiro[3.3]heptan-6-yl)-1H-pyrazol-4-yl)pyrimidin-2-amine] as the compound, how does the IC50 [4] read?
The IC50 was under 10 nM.

`CC(C)c1nn(C2CC3(CNC3)C2)cc1Nc1ncc(-c2ccc(Cl)c(O[C@@H](C)Cn3cnnn3)c2)cn1` [Example 934, (S)-5-(3-((1-(1H-tetrazol-1-yl)propan-2-yl)oxy)-4-chlorophenyl)-N-(3-isopropyl-1-(2-azaspiro[3.3]heptan-6-yl)-1H-pyrazol-4-yl)pyrimidin-2-amine] was tested. Which IC50 [4] did it give?
The IC50 was under 10 nM.

How did the IC50 [4] turn out when `C[C@@H](Cn1cnnn1)Oc1cc(-c2cnc(Nc3cn(CC4(O)CCNCC4)nc3C(F)(F)F)nc2)ccc1Cl` [Example 882, (S)-4-((4-((5-(3-((1-(1H-tetrazol-1-yl)propan-2-yl)oxy)-4-chlorophenyl)pyrimidin-2-yl)amino)-3-(trifluoromethyl)-1H-pyrazol-1-yl)methyl)piperidin-4-ol] was run?
The IC50 was under 10 nM.

With `C[C@@H](Cn1cnnn1)Oc1cc(-c2cnc(Nc3ccnn3C)nc2)ccc1Cl` [Example 735, (S)-5-(3-((1-(1H-tetrazol-1-yl)propan-2-yl)oxy)-4-chlorophenyl)-N-(1-methyl-1H-pyrazol-5-yl)pyrimidin-2-amine] as the compound, how does the IC50 [2] read?
Its IC50 is 10 to 100 nM.
